Data as given in patent publication US10293027B2, “Methods for treating metabolic disorders using FGF” (Salk Institute for Biological Studies, priority 2010, dated 2019).

B1: FGF10: other FGF protein tested for comparison with FGF-1 (protein, UniProt O15520 38-208, looked up)
Fibroblast growth factor 10: QALGQDMVSPEATNSSSSSFSSPSSAGRHVRSYNHLQGDVRWRKLFSFTKYFLKIEKNGKVSGTKKENCPYSILEITSVEIGVVAVKAINSNYYLAMNKKGKLYGSKEFNNDCKLKERIEENGYNTYASFNWQHNGRQMYVALNGKGAPRRGQKTRRKNTSAHFLPMVVHS

What was measured:
[1] = tested on: ob/ob mice; experiment: Single s.c. injection of human FGF1 or other FGFs, blood glucose in ob/ob mice (Examples 13, 14); format: in vivo, mouse; conditions: 0.5 mg/kg s.c.
Description: FIG. 26. Human recombinant FGF-1 is effective in mice.
FIG. 27. Comparison of FGF1, FGF2, FGF9, and FGF10 effects. Single subcutaneous injection of FGFs (0.5 mg/kg) in ob/ob mice.
As human recombinant FGF-1 is already being used in the clinic, the present methods of using it to treat metabolic disorders offer a straightforward regulatory path to treatment.
As explained above, the FGF family of factors bind to members of the FGFR family of receptors with different specificities. FGF-1 binds preferentially to FGFR1 and FGFR4, and can be internalized into a cell expressing these receptors. To determine if other FGF proteins have similar metabolic effects as FGF-1, we tested blood glucose in ob/ob mice treated with FGF-2, FGF-9, and FGF-10 (0.5 mg/kg s.c.). This combination of FGF proteins binds to the spectrum of FGFRs.

[2] = tested on: ob/ob male mice; experiment: Daily FGF-1 or rosiglitazone treatment of ob/ob mice: fed blood glucose and body composition (Example 5); format: in vivo, mouse; conditions: fed ob/ob male mice, one hour after treatment; FGF-1 0.5 mg/kg/day s.c., TZD 5 mg/kg/day p.o.; about 400 mg/dl before treatment
Description: FIGS. 7A-7H. FGF-1 injection studies in rodents. (A) Fed blood glucose in ob/ob male mice treated with FGF-1 (0.5 mg/kg, s.c.), rosiglitazone (TZD, 5 mg/kg, p.o.), or vehicle. FGF-1 was administered once daily, and blood glucose levels were measured at day 0 (basal levels before FGF-1 injection), day 3, and day 6, 1 hour after injection. The values (±SE) shown are the average of the measurements of 5 animals in a group; (B) Sustained glucose lowering effects of FGF-1: Fed blood glucose levels in ob/ob mice at indicated time points after the last FGF-1 injection at day 6. (C-H): 72 hrs after the sixth dose, another dose was given and effects of FGF-1 and TZD on (C) body weight, (D) total body fat, (E) lean weight, (F) weight gain, (G) liver weight, and (H) heart weight were determined.
In Example 5, ob/ob male mice (8 wk old) were randomized into three groups and treated with daily subcutaneous (s.c.) injections of recombinant mouse FGF-1 (0.5 mg/kg in PBS), oral rosiglitazone (TZD, 5 mg/kg in 0.5% carboxymethyl cellulose), or vehicle. Blood glucose levels were measure in fed animals one hour after treatment. Total body composition analysis was performed using an EchoMRI-100™ (Echo Medical Systems, LLC).
Eight-week-old male ob/ob mice were treated with recombinant mouse FGF-1 (0.5 mg/kg/day, s.c. in 250 μl), rosiglitazone (TZD, 5 mg/kg/day, p.o. in 300 μl), or vehicle control (s.c. vehicle control 0.9% NaCl, 250 μl/mouse; p.o. vehicle control 0.5% CMC, 300 μl/mouse). Blood glucose was measured one hour after treatment at day 3 and day 6 using a standard protocol. (FIG. 7A).
Before treatment, all groups were severely hyperglycemic, as indicated by blood glucose levels of about 400 mg/dl. […] At 6 days, blood glucose levels were even further reduced to around 130-140 mg/dl for both groups. After the sixth dose, blood glucose levels were monitored for another 72 hrs. During this period, both FGF-1- and TZD-treated cohorts maintained normoglycemic levels (<140 mg/dl) for at least 48 hrs (FIG. 7B). At 72 hrs after the sixth dose, a final dose was given, and 12 hrs later, a total body composition analysis was performed by MRI followed by necropsy.

| Molecule | blood glucose in ob/ob mice after a single s.c. injection [1] | blood glucose in ob/ob mice after a single s.c. injection ([1]; listed as hrFGF-1) | blood glucose levels at day three [2] |
| --- | --- | --- | --- |
| human FGF1: human recombinant FGF-1; human protein is 155 amino acids, SwissProt P05230.1 | normalizes blood glucose | can effectively reduce glucose levels | – |
| FGF2: other FGF protein tested for comparison with FGF-1 [reference compound] | Only FGF1 has glucose normalizing effects | – | – |
| CN(CCOc1ccc(CC2SC(=O)NC2=O)cc1)c1ccccn1 (centres unmarked) [rosiglitazone, reference compound] | – | – | about 200 mg/dl |
| B1 | Only FGF1 has glucose normalizing effects | – | – |
